# According to patent US11612586B2, “Indole regulation of antigen presenting cells” (THE TEXAS A&M UNIVERSITY SYSTEM, priority 2016, dated 2023):
# What was measured:
# TNF = TNF production in BMDMs, intracellular staining, flow cytometry; assay type: cell-based, mouse
# Protocol: BMDMs were treated with indole or DMF control for 18 hours or 4 hours, followed by stimulation with LPS (2 ug/ml or 250 ng/ml) for 4 hours in the presence of Golgiplug. BMDMs were then stained for intracellular TNF or IL-12 and analyzed by flow cytometry.
# First, pro-inflammatory cytokine production in macrophages was investigated. […] In the DC study described herein, DCs were typically conditioned with indole during their development from bone marrow precursors in order to mimic the proximity of DC progenitor cells to indole in the intestinal microenvironment during development. […] BMDMs were treated for 18 hours with indole, followed by a 4 hour stimulation with either a very high (2 ug/ml) or low (250 ng/ml) dose of LPS.
# Additionally, to determine if recently arrived macrophage precursors might also be affected, BMDMs were next treated for just 4 hours with indole, followed by a […] stimulation with the same LPS concentrations.
# To address the question of indole and AhR dependence in macrophages, experiments using BMDMs derived from AhR-knockout mice were run alongside wild-type littermate controls. Specifically, flow cytometric analysis of BMDMs was performed on WT or AhR-KO mice and treated with indole or DMF control for 18 hours. BMDMs were stimulated for 4 hours with LPS (50 ng/ml) in the presence of Golgiplug, then stained for intracellular TNF (left panels) and IL-12 (right panels).
# The inventors performed a series of assays where bone marrow derived macrophages (BMDMs), bone marrow derived dendritic cells (BMDCs), and splenic dendritic cells (splenic DCs), were exposed to a series of TDMMs, including indole, indole-3-acetate (I3AT), 5-hydroxyindole (5HI), and indole-3-pyruvate (I3P), as well as indole-3-carbinol (I3C; a plant derived compound) to be used for a positive control (1 mM for 24 hours). The BMDMs and BMDCs were stimulated with LPS for 4 hours and assayed at day 7 for expression of various pro-inflammatory cytokines. In a similar assay, the BMDMs and BMDCs were stimulated with LPS or CpG, respectively, for 15 minutes and assayed for pAKT and pERK signaling, which is a reflection of pro-inflammatory response.
# Bone marrow was harvested as described above and cultured at a density of 1×10^6 cells in 10 ml complete media supplemented with 10 ng/ml M-CSF (Peprotech) in 100 mm×15 mm petri dishes. Media with cytokine was replenished on day 3. Adherent and semi-adherent cells were recovered on day 7, plated, and treated with indole prior to downstream experiments.
# IL-10 = IL-10 production by BMDC cultures (ELISA); assay type: cell-based, mouse; conditions: indole-conditioned DCs
# Protocol: To determine whether this was a specific downregulation of pro-inflammatory cytokines, production of the canonical DC-produced anti-inflammatory cytokines, IL-10 and TGF-β, was also examined.
# Cytokine concentration in the supernatant of BMDC cultures was assessed using commercially available ELISA kits for IL-10 (Peprotech) and TGF-β (eBioscience) per the manufacturer's instructions.
# Th17 cells = assay: Th17 differentiation in DC-T cell co-culture; assay type: cell-based, mouse; conditions: co-culture with DCs conditioned with indole, Th17-skewing cytokines present
# Protocol: FIGS. 19A-19C graphically illustrate that indole-conditioned DCs inhibit Th1, Th2, and Th17 differentiation. Naïve CD4+CD25-T cells from OT-II TCR transgenic mice were isolated by column purification. Naïve T cells were then co-cultured with OVA323-339 peptide-loaded BMDCs for 72 hours in the presence or absence of lineage-skewing cytokines (described in methods). BMDCs were previously treated with indole, RA, or DMF from day 3. For the last 5 hours of culture, T cells were restimulated with PMA and ionomycin in the presence of Golgiplug, followed by intracellular staining. Cytokine production was determined to assess differentiation of Th1 (FIG. 19A), Th2 (FIG. 19B), and Th17 CD4+T (FIG. 19C) cells. Mean of three independent experiments. * indicates p<0.05 for one-way ANOVA followed by Dunnett's post-test.
# In order to determine whether the indole-conditioned DC induction of Tregs was specific to this lineage, additional T cell fates were quieried. Activated CD4+T helper cells are typically divided into the subsets Th1, Th2, Th17, and Treg, based on their expression of transcription factors and pattern of cytokine secretion. The antigen-specific co-culture system was used to investigate these remaining traditional T cell lineages with the addition of an endpoint PMA/Ionomycin stimulation to induce cytokine secretion. […]
# NF-kB = NF-kB activity assay in DC2.4-NFkB-GLuc reporter cells; assay type: cell-based, murine; conditions: indole 24 hours, LPS 10 ug/ml
# Protocol: Supernatants were collected and assayed for GLuc concentration in terms of relative luminescence units (RLU). *p<0.05 by Student's t test comparing treated samples to untreated, LPS-stimulated sample.
# To maintain consistency with the cytokine studies, the bacterial surface molecule LPS were utilized to induce NF-kB activity.
# Culture supernatants were collected at 8 and 24 hours and assayed for GLuc using Biolux Gaussia Luciferase assay kit (New England BioLabs).
# IL-12 = IL-12 production in splenic CD11c+ DCs ex vivo; conditions: indole overnight, LPS or heat-killed S. typhimurium
# Protocol: Cultures were then stained for CD11c and intracellular TNF, IL-6, and IL-12. Analysis was confined to CD11c+ DCs and maximal cytokine production was normalized to solvent control (DMF).
# Production of pro-inflammatory cytokines in CD11c+ DCs was assessed via flow cytometry.
# All primary cells were cultured in RPMI 1640 supplemented with 2-mercaptoethanol, gentamicin, penicillin, streptomycin, and 10% FCS (all from Life Technologies). […] Stimulation of dendritic cells at the given concentrations of LPS or heat-killed S. typhimurium were performed for 4 hours (DC2.4 and BMDCs) or 6 hours (primary splenic DCs) in the presence of GolgiPlug protein transport inhibitor (BD Biosciences) to measure cytokine production, or for 24 hours (co-stimulatory markers).
structure (smiles),measurement,setting,value
"c1ccc2[nH]ccc2c1 [Indole, indole]",reduction of TNF production,"TNF; BMDMs from WT or AhR-KO mice, 1 mM indole 18 hours, LPS 50 ng/ml 4 hours",approximately 2 fold
same,TNF,"TNF; BMDMs, 1 mM TDMM 24 hours, LPS 1 ug/ml 4 hours",↓↓↓
same,inhibition of TNF production,"TNF; BMDMs, 1 mM indole 18 hours, LPS 2 ug/ml or 250 ng/ml 4 hours",~2 fold
same,IL-10 production,IL-10,Neither IL-10 nor TGF-β production were affected
same,"Th17 differentiation, rate of T cells",Th17 cells,less than 0.5%
same,inhibition of NF-kB signaling,NF-kB,approximately one-third
same,inhibition of IL-12 production,IL-12,≥ 2 fold
